Measurements reported in US20250235543A1, “MODIFIED PROTEINS AND PROTEIN DEGRADERS” (Cullgen (Shanghai), Inc., priority 2021, published 2025).
Where two headings read alike, the source gives them in different places.

Legend:
cyclin D1 = experiment: Cyclin D1 percentage degradation in Calu-1 cells (immunoblotting); format: cell-based; details: 16 hours
How it was run: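 Cells were rinsed once in cold PBS and lysed in cold RIPA buffer containing protease and phosphatase inhibitors, with gentle agitation at 4° C. for 30 min. Lysates were spun at 13,000 rpm for 10 min at 4° C., protein was measured by BCA, and samples were boiled in Laemmli buffer at 99° C. for 5 min before SDS-PAGE immunoblotting.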

CDK4 = biological target: T1, CDK4 (Homo sapiens, UniProt P11802); experiment: CDK4 percentage degradation in Calu-1 cells (immunoblotting); format: cell-based; details: for inhibition at 10 µM: read-out: CDK4 Degradation (10 μM); for inhibition at 0.2 µM: 200 nM, read-out: CDK4 Degradation (200 nM)
T1 construct: endogenous in cells; host or cells: Calu-1
How it was run: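 Cultured cells were rinsed once in cold PBS and lysed in cold RIPA buffer containing protease and phosphatase inhibitors, with gentle agitation at 4° C. for 30 min. Lysates were centrifuged at 13,000 rpm for 10 min at 4° C., and protein was quantified by BCA. Samples were then separated by SDS-PAGE, detected with ECL, and the CDK4 bands quantified in Image Lab.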

DDB1 = biological target: T2, DDB1 (Homo sapiens, UniProt Q16531, D705G/DEL396-460/DEL463-701/I704S/T703N); experiment: SPR binding assay to immobilized DDB1ΔBPB; details: binding affinities to DDB1
T2 construct: His6 (N, cleaved yes); TEV protease cleavage site (N, cleaved yes); made in house; host or cells: SF9 insect cells, Bac-to-Bac baculovirus, pFastBacHTB vector
Protocol: The binding affinities of heterobifunctional compounds to DDB1 were determined by SPR assay (FIG. 1A-1B). Purified DDB1ΔBPB proteins were immobilized on a CM5 sensor chip, and a dose range of compound solutions were injected in multi-cycle kinetic format. Data were fit to a steady state model to provide equivalent dissociation constants (Kd).
Human DDB1ΔBPB (UniProt: Q16531. BPB domain, aa 396 to 705, is replaced with a GNGNSG linker) coding sequences were cloned into pFastBacHTB vector and were expressed in SF9 cells using Bac-to-Bac baculovirus expression system (Thermo Fisher Scientific). The expression constructs include an N-terminal His6-tag to facilitate the purification, and a TEV protease cleavage site in between. DDB1ΔBPB proteins were obtained from supernatant of cell lysates and purified through sequential application of Ni affinity column (Ni-NTA column, Bio-Rad) and size-exclusion column (Superdex 200 16/600GL column, GE Healthcare) chromatography. Protein tags were cleaved off by TEV protease, and the resulting untagged proteins were further purified by Ni affinity column. Purified proteins were verified by immunoblotting, analytic SEC, and LC-MS.
SPR studies were performed on a Biacore X100 plus instrument (GE Healthcare). Immobilization of purified DDB1ΔBPB was carried out at 25° C. using a CM5 sensor chip. The surface was pre-equilibrated in HBS-EP running buffer (10 mM HEPES, pH7.4, 150 mM NaCl, 3 mM EDTA, 0.05% P20), before it was activated with EDC/NHS. DDB1ΔBPB proteins were immobilized by amine coupling to a density of 10,000-12,000 resonance units (RUs) on flow cell FC2, whereas flow cell FC1 was used as reference. Both protein immobilized and reference surfaces were deactivated with 1M ethanolamine. All interaction experiments were performed at 25° C. Test compounds were prepared and serially diluted in HBS-EP running buffer containing final 5% DMSO (6-point two-fold serial dilution, 100 μM-3.125 μM final concentration of compounds). Compound solutions were injected individually in multi-cycle kinetic format without regeneration (flow rate 30 μl/min, association time 120 s, dissociation time 120 s). Sensorgrams from reference surfaces and blank injections were subtracted from the raw data (double-referencing) and the data was solvent-corrected prior to analysis. All data were fit to steady state affinity model using Biacore Evaluation Software to provide equivalent dissociation constants (Kd).

P300/CBP = P300/CBP cellular protein degradation; format: cell-based
Protocol: Cultured cells were washed with cold PBS once and lysed in cold RIPA buffer supplemented with protease inhibitors and phosphatase inhibitors (Beyotime Biotechnology). The solutions were then incubated at 4° C. for 30 min with gentle agitation to fully lysed cells. Cell lysates were centrifuged at 13,000 rpm for 10 min at 4° C. and pellets were discarded. Total protein concentrations in the lysates were determined following BCA assays (Beyotime Biotechnology). Cell lysates were mixed with Laemmli loading buffer and heated at 99° C. for 5 min. Proteins were resolved on SDS-PAGE and visualized using Western ECL Substrate kits on a ChemiDoc MP Imaging system (Bio-Rad). Protein bands were quantitated using the Image Lab software provided by Bio-Rad.

T1 sequence (P11802 2-303 limits assumed): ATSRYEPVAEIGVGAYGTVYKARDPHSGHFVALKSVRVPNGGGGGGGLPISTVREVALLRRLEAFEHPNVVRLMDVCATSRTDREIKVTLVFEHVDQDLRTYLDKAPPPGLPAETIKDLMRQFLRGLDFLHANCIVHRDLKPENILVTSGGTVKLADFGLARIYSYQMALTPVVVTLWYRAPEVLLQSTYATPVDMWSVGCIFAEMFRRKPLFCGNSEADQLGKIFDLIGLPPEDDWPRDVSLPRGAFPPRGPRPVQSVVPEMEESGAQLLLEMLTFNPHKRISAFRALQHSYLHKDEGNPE
T1 sequence (P24385 whole entry partner): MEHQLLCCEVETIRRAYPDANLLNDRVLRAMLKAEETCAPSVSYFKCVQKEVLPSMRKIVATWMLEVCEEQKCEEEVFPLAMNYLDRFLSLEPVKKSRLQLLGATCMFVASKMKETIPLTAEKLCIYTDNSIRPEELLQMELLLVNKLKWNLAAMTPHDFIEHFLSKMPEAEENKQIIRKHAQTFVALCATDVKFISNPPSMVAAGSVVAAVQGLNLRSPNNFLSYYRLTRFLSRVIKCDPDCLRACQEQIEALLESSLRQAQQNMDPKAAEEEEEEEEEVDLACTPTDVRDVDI
T1 sequence (Q16531 2-1140 limits assumed, further chain): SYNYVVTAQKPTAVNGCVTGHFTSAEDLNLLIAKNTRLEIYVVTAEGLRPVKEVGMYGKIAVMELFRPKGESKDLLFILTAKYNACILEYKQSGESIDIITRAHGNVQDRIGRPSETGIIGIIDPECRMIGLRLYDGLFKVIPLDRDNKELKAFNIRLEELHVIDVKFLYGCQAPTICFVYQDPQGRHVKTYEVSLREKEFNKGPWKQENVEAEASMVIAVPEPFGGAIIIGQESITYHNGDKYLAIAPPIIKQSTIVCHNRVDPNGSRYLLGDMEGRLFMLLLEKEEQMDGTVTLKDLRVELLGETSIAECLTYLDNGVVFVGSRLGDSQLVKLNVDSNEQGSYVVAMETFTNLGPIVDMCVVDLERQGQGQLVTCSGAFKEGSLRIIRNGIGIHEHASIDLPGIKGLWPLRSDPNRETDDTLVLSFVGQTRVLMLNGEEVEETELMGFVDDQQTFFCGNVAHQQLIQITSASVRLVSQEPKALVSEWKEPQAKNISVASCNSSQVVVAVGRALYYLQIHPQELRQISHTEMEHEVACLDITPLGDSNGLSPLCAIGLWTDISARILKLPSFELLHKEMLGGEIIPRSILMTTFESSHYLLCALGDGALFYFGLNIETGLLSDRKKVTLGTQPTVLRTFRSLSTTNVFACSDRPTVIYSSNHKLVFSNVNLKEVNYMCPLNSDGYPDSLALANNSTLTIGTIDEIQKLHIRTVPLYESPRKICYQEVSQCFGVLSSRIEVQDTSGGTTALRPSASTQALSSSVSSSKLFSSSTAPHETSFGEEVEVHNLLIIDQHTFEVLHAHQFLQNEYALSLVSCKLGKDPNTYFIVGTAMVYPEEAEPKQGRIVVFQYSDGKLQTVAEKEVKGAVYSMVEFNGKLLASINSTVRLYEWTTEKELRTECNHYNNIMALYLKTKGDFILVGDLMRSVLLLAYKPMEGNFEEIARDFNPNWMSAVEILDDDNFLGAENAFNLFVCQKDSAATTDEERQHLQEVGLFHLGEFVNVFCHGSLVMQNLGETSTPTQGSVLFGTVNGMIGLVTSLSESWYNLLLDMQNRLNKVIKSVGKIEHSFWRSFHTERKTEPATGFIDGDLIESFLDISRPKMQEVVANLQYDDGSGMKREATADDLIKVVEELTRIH
T2 sequence (Q16531 other isoform, or with tags, fused parts or gaps DEL396-460/DEL463-701/T703N/I704S/D705G): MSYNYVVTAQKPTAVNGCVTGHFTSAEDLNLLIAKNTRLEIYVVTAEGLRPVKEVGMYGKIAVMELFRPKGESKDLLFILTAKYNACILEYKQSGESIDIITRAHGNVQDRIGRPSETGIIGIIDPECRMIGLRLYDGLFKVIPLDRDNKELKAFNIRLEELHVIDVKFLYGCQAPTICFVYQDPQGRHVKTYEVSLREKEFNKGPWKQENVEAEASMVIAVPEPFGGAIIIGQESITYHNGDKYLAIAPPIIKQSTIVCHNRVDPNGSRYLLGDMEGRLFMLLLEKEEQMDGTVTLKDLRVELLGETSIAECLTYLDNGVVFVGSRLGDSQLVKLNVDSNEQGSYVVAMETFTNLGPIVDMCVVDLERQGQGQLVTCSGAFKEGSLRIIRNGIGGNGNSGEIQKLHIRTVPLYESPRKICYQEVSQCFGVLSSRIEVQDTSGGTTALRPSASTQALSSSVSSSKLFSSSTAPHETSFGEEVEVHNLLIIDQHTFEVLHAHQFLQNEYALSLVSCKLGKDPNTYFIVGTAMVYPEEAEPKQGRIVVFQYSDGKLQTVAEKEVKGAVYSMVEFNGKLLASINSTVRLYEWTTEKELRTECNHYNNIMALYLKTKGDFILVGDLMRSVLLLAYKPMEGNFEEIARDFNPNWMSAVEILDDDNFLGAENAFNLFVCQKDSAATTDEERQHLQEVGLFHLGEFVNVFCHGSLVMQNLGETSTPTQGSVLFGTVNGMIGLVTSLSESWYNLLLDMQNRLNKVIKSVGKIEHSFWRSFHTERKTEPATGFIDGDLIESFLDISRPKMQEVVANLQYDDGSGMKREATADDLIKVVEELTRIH

Kd (DDB1) [µM]	inhibition at 10 µM (CDK4; Calu-1 cells, 10 μM, 16 hours) [%]	inhibition at 0.2 µM (CDK4; Calu-1 cells, 16 hours) [%]	Structure (SMILES)	CyclinD1 Degradation (10 μM) (cyclin D1)	inhibition at 10 µM (CDK4; Calu-1, 16 h) [%]	CyclinD1 Degradation (200 nM) (cyclin D1)	P300/CBP Degradation (100 nM) (P300/CBP)
50 to 100	> 80	–	Cc1cnc(NC(=O)c2ccc(NCCOCCOCCOCCOCCOCCNC(=O)CN3CCN(c4ccc(Nc5ncc6cc(C(=O)N(C)C)n(C7CCCC7)c6n5)nc4)CC3)cc2C)s1 [CPD-023, 7-Cyclopentyl-N,N-dimethyl-2-((5-(4-(20-((3-methyl-4-((5-methylthiazol-2-yl)carbamoyl)phenyl)amino)-2-oxo-6,9,12,15,18-pentaoxa-3-azaicosyl)piperazin-1-yl)pyridin-2-yl)amino)-7H-pyrrolo[2,3-d]pyrimidine-6-carboxamide]	A (protein percentage degradation >= 80%)	–	–	–
< 20	–	> 80	COC(=O)c1nc(NC(=O)c2ccc(NCCOCCOCCOCCOCCOCCNC(=O)CN3CCN(c4ccc(Nc5ncc6c(C)c(C(C)=O)c(=O)n(C7CCCC7)c6n5)nc4)CC3)cc2C)sc1C [CPD-033, Methyl 2-(4-((1-(4-(6-((6-acetyl-8-cyclopentyl-5-methyl-7-oxo-7,8-dihydropyrido[2,3-d]pyrimidin-2-yl)amino)pyridin-3-yl)piperazin-1-yl)-2-oxo-6,9,12,15,18-pentaoxa-3-azaicosan-20-yl)amino)-2-methylbenzamido)-5-methylthiazole-4-carboxylate]	–	–	A (protein percentage degradation >=80%)	–
< 20	–	> 80	CC(=O)c1c(C)c2cnc(Nc3ccc(N4CCN(CC(=O)NCCOCCOCCOCCOCCOCCNc5ccc(C(=O)Nc6nc(C(C)C)c(C)s6)c(C)c5)CC4)cn3)nc2n(C2CCCC2)c1=O [CPD-043, 4-((1-(4-(6-((6-Acetyl-8-cyclopentyl-5-methyl-7-oxo-7,8-dihydropyrido[2,3-d]pyrimidin-2-yl)amino)pyridin-3-yl)piperazin-1-yl)-2-oxo-6,9,12,15,18-pentaoxa-3-azaicosan-20-yl)amino)-N-(4-isopropyl-5-methylthiazol-2-yl)-2-methylbenzamide]	–	–	A (protein percentage degradation >=80%)	–
< 20	–	50 to 80	CC(=O)c1c(C)c2cnc(Nc3ccc(N4CCN(CC(=O)NCCOCCOCCOCCOCCOCCNc5ccc(C(=O)Nc6nc(Br)c(C)s6)c(C)c5)CC4)cn3)nc2n(C2CCCC2)c1=O [CPD-044, 4-((1-(4-(6-((6-Acetyl-8-cyclopentyl-5-methyl-7-oxo-7,8-dihydropyrido[2,3-d]pyrimidin-2-yl)amino)pyridin-3-yl)piperazin-1-yl)-2-oxo-6,9,12,15,18-pentaoxa-3-azaicosan-20-yl)amino)-N-(4-bromo-5-methylthiazol-2-yl)-2-methylbenzamide]	–	–	A (protein percentage degradation >=80%)	–
< 20	–	> 80	CC(=O)c1c(C)c2cnc(Nc3ccc(N4CCN(CC(=O)NCCOCCOCCOCCOCCOCCNc5ccc(C(=O)Nc6nc(C7CC7)c(C)s6)c(C)c5)CC4)cn3)nc2n(C2CCCC2)c1=O [CPD-046, 4-((1-(4-(6-((6-Acetyl-8-cyclopentyl-5-methyl-7-oxo-7,8-dihydropyrido[2,3-d]pyrimidin-2-yl)amino)pyridin-3-yl)piperazin-1-yl)-2-oxo-6,9,12,15,18-pentaoxa-3-azaicosan-20-yl)amino)-N-(4-cyclopropyl-5-methylthiazol-2-yl)-2-methylbenzamide]	–	–	A (protein percentage degradation >=80%)	–
< 20	–	> 80	CCc1nc(NC(=O)c2ccc(NCCOCCOCCOCCOCCOCCNC(=O)CN3CCN(c4ccc(Nc5ncc6c(C)c(C(C)=O)c(=O)n(C7CCCC7)c6n5)nc4)CC3)cc2C)sc1C [CPD-047, 4-((1-(4-(6-((6-Acetyl-8-cyclopentyl-5-methyl-7-oxo-7,8-dihydropyrido[2,3-d]pyrimidin-2-yl)amino)pyridin-3-yl)piperazin-1-yl)-2-oxo-6,9,12,15,18-pentaoxa-3-azaicosan-20-yl)amino)-N-(4-ethyl-5-methylthiazol-2-yl)-2-methylbenzamide]	–	–	A (protein percentage degradation >=80%)	–
< 20	–	> 80	CC(=O)c1c(C)c2cnc(Nc3ccc(N4CCN(CC(=O)NCCOCCOCCOCCC(=O)Nc5ccccc5C(=O)Nc5nc(C)c(C)s5)CC4)cn3)nc2n(C2CCCC2)c1=O [CPD-114, 2-(1-(4-(6-((6-Acetyl-8-cyclopentyl-5-methyl-7-oxo-7,8-dihydropyrido[2,3-d]pyrimidin-2-yl)amino)pyridin-3-yl)piperazin-1-yl)-2-oxo-6,9,12-trioxa-3-azapentadecan-15-amido)-N-(4,5-dimethylthiazol-2-yl)benzamide]	–	–	A (protein percentage degradation >=80%)	–
< 20	–	> 80	CC(=O)c1c(C)c2cnc(Nc3ccc(N4CCN(CC(=O)NCCOCCOCCC(=O)Nc5ccccc5C(=O)Nc5nc(C)c(C)s5)CC4)cn3)nc2n(C2CCCC2)c1=O [CPD-115, 2-(3-(2-(2-(2-(4-(6-((6-Acetyl-8-cyclopentyl-5-methyl-7-oxo-7,8-dihydropyrido[2,3-d]pyrimidin-2-yl)amino)pyridin-3-yl)piperazin-1-yl)acetamido)ethoxy)ethoxy)propanamido)-N-(4,5-dimethylthiazol-2-yl)benzamide]	–	–	A (protein percentage degradation >=80%)	–
–	–	–	CC(=O)N1CCc2c(c(N3CCCc4cc(-c5cnn(C)c5)c(C(F)F)cc43)nn2C2CCN(CC(=O)NCCNc3ccc(C(=O)Nc4ncc(C)s4)c(C)c3)CC2)C1 [CPD-189, 4-((2-(2-(4-(5-Acetyl-3-(7-(difluoromethyl)-6-(1-methyl-1H-pyrazol-4-yl)-3,4-dihydroquinolin-1(2H)-yl)-4,5,6,7-tetrahydro-1H-pyrazolo[4,3-c]pyridin-1-yl)piperidin-1-yl)acetamido)ethyl)amino)-2-methyl-N-(5-methylthiazol-2-yl)benzamide]	–	–	–	D (degradation activity < 30%)
–	–	–	CC(=O)N1CCc2c(c(N3CCCc4cc(-c5cnn(C)c5)c(C(F)F)cc43)nn2C2CCN(CC(=O)NCCCCCNc3ccc(C(=O)Nc4ncc(C)s4)c(C)c3)CC2)C1 [CPD-192, 4-((5-(2-(4-(5-Acetyl-3-(7-(difluoromethyl)-6-(1-methyl-1H-pyrazol-4-yl)-3,4-dihydroquinolin-1(2H)-yl)-4,5,6,7-tetrahydro-1H-pyrazolo[4,3-c]pyridin-1-yl)piperidin-1-yl)acetamido)pentyl)amino)-2-methyl-N-(5-methylthiazol-2-yl)benzamide]	–	–	–	D (degradation activity < 30%)

Structure (SMILES)	Kd (DDB1) [µM]	inhibition at 10 µM (CDK4; Calu-1 cells, 10 μM, 16 hours) [%]	inhibition at 0.2 µM (CDK4; Calu-1 cells, 16 hours) [%]	CyclinD1 Degradation (10 μM) (cyclin D1)	inhibition at 10 µM (CDK4; Calu-1, 16 h) [%]	CyclinD1 Degradation (200 nM) (cyclin D1)	P300/CBP Degradation (100 nM) (P300/CBP)
Cc1cnc(NC(=O)c2ccc(NCCOCCOCCOCCOCCOCCNC(=O)CN3CCN(c4ccc(Nc5ncc6cc7n(c6n5)C5(CCCCC5)CNC7=O)nc4)CC3)cc2C)s1 [CPD-022, 2-Methyl-N-(5-methylthiazol-2-yl)-4-((2-oxo-1-(4-(6-((6′-oxo-7′,8′-dihydro-6′H-spiro[cyclohexane-1,9′-pyrazino[1′,2′:1,5]pyrrolo[2,3-d]pyrimidin]-2′-yl)amino)pyridin-3-yl)piperazin-1-yl)-6,9,12,15,18-pentaoxa-3-azaicosan-20-yl)amino)benzamide]	< 20	–	–	A (protein percentage degradation >= 80%)	> 80	–	–
